Measurements: patent publication US6514946B1, “Macrolide antibiotics and treatment and prophylaxis of pasteurellosis using the same” (Zaidan Hojin Biseibutsu Kagaku Kenkyu Kai, priority 1999, dated 2003)
Converted amounts (≈) assume the structure as drawn.

Key:
[1] = tested on: S. aureus Smith (virulent strain); assay: microbe, parasite or virus in culture; type: cell-based, Staphylococcus aureus; details: S. aureus Smith (virulent strain); Mueller hinton agar
Protocol: (§1) Test 1; Minimum Inhibition Concentration (MIC)
(§2) MIC was measured, based on the standard method of Japan Society of Chemotherapy, on a BHI agar medium (Brain heart-infusion agar, made by Difco Laboratories Inc.(USA)) with respect to Pasteurella and on a Mueller hinton agar medium (Mueller hinton agar, made by Difco, Laboratories Inc.(USA)) with respect to the other test bacteria in both cases according to the double dilution method.

S. aureus FDA209P = assay: Minimum inhibition concentration (MIC), agar double dilution method; type: cell-based, Staphylococcus aureus; details: Mueller hinton agar
Protocol: as §1, §2

[2] = tested on: Past haemolytica BBPO102 N811; assay: as above; type: cell-based, Pasteurella haemolytica; details: Past haemolytica BBPO102 N811, strain from cattle; BHI agar
Protocol: as §1, §2

[3] = tested on: Past haemolytica BAPO103 S801; assay: as above; type: cell-based, Pasteurella haemolytica; details: Past haemolytica BAPO103 S801, strain from poultry; BHI agar
Protocol: as §1, §2

[4] = tested on: Past. multocida BOPO305 M-17; assay: as above; type: cell-based, Pasteurella multocida; details: Past. multocida BOPO305 M-17, strain from a sheep; BHI agar
Protocol: as §1, §2

[5] = tested on: Past. multocida BSPO302 No. 6; assay: as above; type: cell-based, Pasteurella multocida; details: Past. multocida BSPO302 No. 6, strain from a pig; BHI agar
Protocol: as §1, §2

E. coli K-12 R-5 = assay: as above; type: cell-based, Escherichia coli; details: Mueller hinton agar
Protocol: as §1, §2

[6] = tested on: Enterobacter aerogenes ATCC13048; assay: as above; type: cell-based; details: Mueller hinton agar
Protocol: as §1, §2

[7] = tested on: Staphylococcus aureus 193; assay: as above; type: cell-based; details: Mueller hinton agar
Protocol: as §1, §2

Escherichia coli NIHJ = assay: as above; type: cell-based; details: Mueller hinton agar
Protocol: as §1, §2

[8] = tested on: Shigella dysenteriae JS11910; assay: as above; type: cell-based; details: Shigella dysenteriae JS11910; Mueller hinton agar
Protocol: as §1, §2

[9] = tested on: Micrococcus luteus PCI1001; assay: as above; type: cell-based; details: Mueller hinton agar
Protocol: as §1, §2

[10] = tested on: Salmonella enteritidis 1891; assay: as above; type: cell-based; details: Mueller hinton agar
Protocol: as §1, §2

[11] = tested on: Klebsiella pneumoniae PCI602; assay: as above; type: cell-based; details: Mueller hinton agar
Protocol: as §1, §2

Serratia marcescens = assay: as above; type: cell-based; details: Mueller hinton agar
Protocol: as §1, §2

Proteus vulgaris OX19 = assay: as above; type: cell-based; details: Mueller hinton agar
Protocol: as §1, §2

[12] = tested on: Pasteurella haemolytica BBPO101 N791; assay: as above; type: cell-based; details: Pasteurella haemolytica BBPO101 N791, strain from cattle; BHI agar
Protocol: as §1, §2

[13] = tested on: Bacillus subtilis NRRL B-558; assay: as above; type: cell-based; details: Bacillus subtilis NRRL B-558; Mueller hinton agar
Protocol: as §1, §2

CC[C@H]1OC(=O)C[C@@H](O)[C@H](C)[C@@H](O[C@@H]2O[C@H](C)C(O)C(N(C)C)C2O)[C@@H](CCN2CC(C)CC(C)C2)C[C@@H](C)C(=O)/C=C/C(C)=C/[C@@H]1CN1CC(C)CC(C)C1 (some centres unmarked) [DMP-MT]
MIC [1]: 6.25 µg/mL (≈ 7.91 µM) | MIC (S. aureus FDA209P): 1.56 µg/mL (≈ 1.97 µM) | MIC [2]: 0.39 µg/mL (≈ 0.494 µM) | MIC [3]: 1.56 µg/mL (≈ 1.97 µM) | MIC [4]: 0.39 µg/mL (≈ 0.494 µM) | MIC [5]: 0.78 µg/mL (≈ 0.987 µM) | MIC (E. coli K-12 R-5): >100 µg/mL | MIC [6]: 25 µg/mL (≈ 31.6 µM) | MIC [7]: 3.13 µg/mL (≈ 3.96 µM) | MIC (Escherichia coli NIHJ): 6.25 µg/mL (≈ 7.91 µM) | MIC [8]: 12.5 µg/mL (≈ 15.8 µM) | MIC [9]: 1.56 µg/mL (≈ 1.97 µM) | MIC [10]: 3.13 µg/mL (≈ 3.96 µM) | MIC [11]: 6.25 µg/mL (≈ 7.91 µM) | MIC (Serratia marcescens): 100 µg/mL (≈ 127 µM) | MIC (Proteus vulgaris OX19): 25 µg/mL (≈ 31.6 µM) | MIC [12]: 0.39 µg/mL (≈ 0.494 µM)

CC[C@H]1OC(=O)C[C@@H](O)[C@H](C)[C@@H](O[C@@H]2O[C@H](C)C(O)C(N(C)C)C2O)[C@@H](CCN(C)C)C[C@@H](C)C(=O)/C=C/C(C)=C/[C@@H]1CN(C)C (some centres unmarked) [Compound C-1]
MIC [1]: 100 µg/mL (≈ 153 µM) | MIC (S. aureus FDA209P): 50 µg/mL (≈ 76.5 µM) | MIC [2]: 6.25 µg/mL (≈ 9.56 µM) | MIC [3]: 50 µg/mL (≈ 76.5 µM) | MIC [4]: 6.25 µg/mL (≈ 9.56 µM) | MIC [5]: 12.5 µg/mL (≈ 19.1 µM) | MIC (E. coli K-12 R-5): >100 µg/mL | MIC [6]: 50 µg/mL (≈ 76.5 µM) | MIC [7]: 50 µg/mL (≈ 76.5 µM) | MIC (Escherichia coli NIHJ): 12.5 µg/mL (≈ 19.1 µM) | MIC [8]: 50 µg/mL (≈ 76.5 µM) | MIC [9]: 3.13 µg/mL (≈ 4.79 µM) | MIC [10]: 6.25 µg/mL (≈ 9.56 µM) | MIC [11]: 25 µg/mL (≈ 38.2 µM) | MIC (Serratia marcescens): >100 µg/mL | MIC (Proteus vulgaris OX19): 100 µg/mL (≈ 153 µM) | MIC [12]: 6.25 µg/mL (≈ 9.56 µM) | MIC [13]: 100 µg/mL (≈ 153 µM)

CC[C@H]1OC(=O)C[C@@H](O)[C@H](C)[C@@H](O[C@@H]2O[C@H](C)C(O)C(N(C)C)C2O)[C@@H](CCN(C)C2CCCCC2)C[C@@H](C)C(=O)/C=C/C(C)=C/[C@@H]1CN(C)C1CCCCC1 (some centres unmarked) [Compound C-3]
MIC [1]: 3.13 µg/mL (≈ 3.96 µM) | MIC (S. aureus FDA209P): 1.56 µg/mL (≈ 1.97 µM) | MIC [2]: 0.78 µg/mL (≈ 0.987 µM) | MIC [4]: 1.56 µg/mL (≈ 1.97 µM) | MIC [5]: 1.56 µg/mL (≈ 1.97 µM) | MIC [6]: 12.5 µg/mL (≈ 15.8 µM) | MIC [7]: 1.56 µg/mL (≈ 1.97 µM) | MIC (Escherichia coli NIHJ): 3.13 µg/mL (≈ 3.96 µM) | MIC [8]: 6.25 µg/mL (≈ 7.91 µM) | MIC [9]: 0.78 µg/mL (≈ 0.987 µM) | MIC [10]: 1.56 µg/mL (≈ 1.97 µM) | MIC [11]: 3.13 µg/mL (≈ 3.96 µM) | MIC (Serratia marcescens): 50 µg/mL (≈ 63.3 µM) | MIC (Proteus vulgaris OX19): 12.5 µg/mL (≈ 15.8 µM) | MIC [12]: 0.39 µg/mL (≈ 0.494 µM) | MIC [13]: 3.13 µg/mL (≈ 3.96 µM)

CC[C@H]1OC(=O)C[C@@H](O)[C@H](C)[C@@H](O[C@@H]2O[C@H](C)C(O)C(N(C)C)C2O)[C@@H](CCN(C)Cc2ccccc2)C[C@@H](C)C(=O)/C=C/C(C)=C/[C@@H]1CN(C)Cc1ccccc1 (some centres unmarked) [Compound C-4]
MIC [1]: 6.25 µg/mL (≈ 7.75 µM) | MIC (S. aureus FDA209P): 0.39 µg/mL (≈ 0.484 µM) | MIC [2]: 0.39 µg/mL (≈ 0.484 µM) | MIC [3]: 6.25 µg/mL (≈ 7.75 µM) | MIC [4]: 0.76 µg/mL (≈ 0.943 µM) | MIC [5]: 1.56 µg/mL (≈ 1.94 µM) | MIC (E. coli K-12 R-5): >100 µg/mL | MIC [6]: 12.5 µg/mL (≈ 15.5 µM) | MIC [7]: 0.39 µg/mL (≈ 0.484 µM) | MIC (Escherichia coli NIHJ): 6.25 µg/mL (≈ 7.75 µM) | MIC [8]: 3.13 µg/mL (≈ 3.88 µM) | MIC [9]: 0.20 µg/mL (≈ 0.248 µM) | MIC [10]: 1.56 µg/mL (≈ 1.94 µM) | MIC [11]: 6.25 µg/mL (≈ 7.75 µM) | MIC (Serratia marcescens): 100 µg/mL (≈ 124 µM) | MIC (Proteus vulgaris OX19): 12.5 µg/mL (≈ 15.5 µM) | MIC [12]: 0.39 µg/mL (≈ 0.484 µM)
